How the values were obtained:
Assay type in all cases: in vivo, mouse
[1] = test system: OPN knockout (OPN-KO) mice; assay: Determination of cortical bone thickness and area after PTH treatment, OPN-KO mice; details: PTH(+) group, 80 μg/kg s.c., 4 weeks, femoral mid-diaphysis
Description: Horizontal sections were prepared from the femoral mid-diaphysis and tomographed using an X-ray microtomograph Musashi (Nittetsu-ELEX, Osaka, Japan). A Luzex-F automated image analysis system (Nireco, Tokyo, Japan) was then used for analysis of the image data to determine the thickness and area of cortical bone. The thickness was evaluated at the mean value averaged over 8 measurements every 45°.
(§1) To create an animal model in which the in vivo effects of OPN were inhibited, strain 129 female mice at 7 weeks of age were modified into knockout mice deficient in the OPN gene (OPN-KO mice), as described in Rittling et al. J. Bone Miner. Res., 13: 1101-1111, 1998. These mice were singly used for PTH treatment test. They were divided into groups of 6 mice each.
(§2) Recombinant human PTH(1-34) (Bachem, Torrance, Calif.) was dissolved in acidified physiological saline supplemented with 0.1% bovine serum albumin (Sigma Chemical Co.-Aldrich, St. Louis, Mo.). The OPN-KO mice were subcutaneously administered with 80 μg/kg of body weight human PTH(1-34) for 4 weeks on a five-days-a-week basis. Mice in the control group were administered with physiological saline alone.

[2] = test system: OPN knockout (OPN-KO) mice; assay: BFR and MAR in cancellous bone (distal end of femur) after PTH treatment, OPN-KO mice
Description: BFR denotes bone formation rate per unit trabecular area (μm^3/μm^2/day).
MAR denotes the rate of increase in the distance between labeled calcified bands (μm/day).
In the case of cancellous bone, decalcified sagittal sections were prepared from the metaphyseal region and analyzed for BFR and MAR in a 1.4 mm^2 square area located 0.2 mm apart from the growth plate of the distal end of femur. Labeling was accomplished by subcutaneous administration of xylenol orange (100 mg/kg of body weight) 4 days before and calcein 2 days before sampling.
as §1, §2

[3] = test system: wild-type strain 129 female mice; assay: Determination of cancellous bone mass (BV/TV) after PTH treatment, wild-type mice; details: WT mice, PTH(+) group, 80 μg/kg s.c., 4 weeks, five days a week
Description: Sagittal sections were prepared from the metaphyseal region of femur and tomographed using an X-ray microtomograph Musashi (Nittetsu-ELEX, Osaka, Japan). A Luzex-F automated Image analysis system (Nireco, Tokyo, Japan) was then used for analysis of the image data from a 1.47 mm^2 square area (0.7 mm×2.1 mm) located 0.2 mm apart from the growth plate of the distal end of femur to obtain BV/TV values. BV/TV (bone volume/total tissue volume) denotes the unit bone mass (%), i.e., the percentage of the total trabecular volume in the total tissue volume. Namely, an increase in BV/TV means an increase in calcified bone. Recombinant human PTH(1-34) (Bachem, Torrance, Calif.) was dissolved in acidified physiological saline supplemented with 0.1% bovine serum albumin (Sigma Chemical Co.-Aldrich, St. Louis, Mo.). The OPN-KO mice were subcutaneously administered with 80 μg/kg of body weight human PTH(1-34) for 4 weeks on a five-days-a-week basis. Mice in the control group were administered with physiological saline alone. The effect of PTH on bone metabolism was also examined in the same manner as shown in Example 1, using wild-type strain 129 female mice (7 weeks of age). These mice were divided into groups of 6 mice each.

[4] = test system: wild-type strain 129 female mice; assay: BFR and MAR in cortical bone (femoral mid-diaphysis) after PTH treatment, wild-type mice; details: WT mice
Description: In the case of cortical bone, decalcified horizontal sections (serial sections of 3 μm thickness) were prepared from the femoral mid-diaphysis and analyzed for BFR and MAR in the periosteal and endosteal regions. More specifically, a calcium chelator calcein (4 mg/kg of body weight) was subcutaneously administered 9 days and 2 days before sampling and the interval between two labeled bands was determined under a fluorescence microscope to calculate BFR and MAR. BFR denotes bone formation rate per unit trabecular area (μm^3/μm^2/day). MAR denotes the rate of increase in the distance between labeled calcified bands (μm/day). Recombinant human PTH(1-34) (Bachem, Torrance, Calif.) was dissolved in acidified physiological saline supplemented with 0.1% bovine serum albumin (Sigma Chemical Co.-Aldrich, St. Louis, Mo.). The OPN-KO mice were subcutaneously administered with 80 μg/kg of body weight human PTH(1-34) for 4 weeks on a five-days-a-week basis. Mice in the control group were administered with physiological saline alone. The effect of PTH on bone metabolism was also examined in the same manner as shown in Example 1, using wild-type strain 129 female mice (7 weeks of age). These mice were divided into groups of 6 mice each.

[5] = test system: wild-type strain 129 female mice; assay: Determination of TRAP-positive cells (osteoclasts) after PTH treatment, wild-type mice; details: WT mice, PTH(+) group, 80 μg/kg s.c., 4 weeks
Description: After treatment with PTH, forefoot bone was excised from each animal. Each bone was rinsed with PBS, fixed for 7 days in 4% paraformaldehyde acid and decalcified for 3 days in 10% EDTA (pH 7.4), followed by dehydration and embedding in paraffin. Serial sections of 7 μm thickness were prepared from paraffin blocks and stained to measure TRAP (tartrate resistant acid phosphatase) activity, with Alcian blue for counter-staining. Among TRAP-positive cells attached to cancellous bone, those having at least three nuclei were counted using 15 serial sections of 7 μm thickness prepared from each bone. Each of the 15 sections was taken at five-section intervals from a total of 75 sections per bone. The number of multinucleated TRAP-positive cells in all 15 sections was summed to give the total number of osteoclasts per unit trabecular perimeter. Recombinant human PTH(1-34) (Bachem, Torrance, Calif.) was dissolved in acidified physiological saline supplemented with 0.1% bovine serum albumin (Sigma Chemical Co.-Aldrich, St. Louis, Mo.). The OPN-KO mice were subcutaneously administered with 80 μg/kg of body weight human PTH(1-34) for 4 weeks on a five-days-a-week basis. Mice in the control group were administered with physiological saline alone. The effect of PTH on bone metabolism was also examined in the same manner as shown in Example 1, using wild-type strain 129 female mice (7 weeks of age). […]

[6] = OPN-KO mice, PTH(+) group, 80 μg/kg s.c., 4 weeks, distal end of femur
[7] = OPN-KO mice, PTH(+) vs PTH(−) group, p<0.05
[8] = cancellous bone, OPN-KO vs WT mice, p<0.05
[9] = PTH(+) group, 80 μg/kg s.c., 4 weeks
[10] = PTH(+) vs PTH(−) group, significant inhibition of bone formation (p<0.05)

Question: human PTH(1-34) was tested. Which “area of cortical bone” value [1] did it give?
Answer: The value was 0.88±0.13 mm^2.

Question: And the “thickness of cortical bone” value [1]?
Answer: The value was 0.26±0.04 mm.

Question: What about the “BFR in cancellous bone” value [2, 6] of the same substance?
Answer: The value was 2.68±0.34 μm^3/μm^2/day.

Question: What about the “MAR in cancellous bone” value [2, 6] of the same substance?
Answer: The value was 6.21±1.11 μm/day.

Question: And the “fold increase in cancellous BFR by PTH treatment” value [2, 7]?
Answer: The value was roughly 2.1 fold.

Question: What about the “fold increase in cancellous MAR by PTH treatment” value [2, 7] of the same substance?
Answer: The value was roughly 1.7 fold.

Question: What about the “elevation in the magnitude of PTH-induced increase in BFR caused by lack of OPN” value [2, 8] of the same substance?
Answer: Its value is roughly 1.3 fold.

Question: What about the “elevation in the magnitude of PTH-induced increase in MAR caused by lack of OPN” value [2, 8] of the same substance?
Answer: Its value is “about 1.4 fold”.

Question: What about the “cancellous bone mass BV/TV” value [3] of the same substance?
Answer: Its value is 21.17±2.68%.

Question: And the “endosteal BFR, cortical bone” value [4, 9]?
Answer: Its value is 1.37±0.18 μm^3/μm^2/day.

Question: What about the “endosteal MAR, cortical bone” value [4, 9] of the same substance?
Answer: The value was 2.44±0.29 μm/day.

Question: What about the “periosteal BFR, cortical bone” value [4, 9] of the same substance?
Answer: Its value is 1.07±0.08 μm^3/μ^2/day.

Question: And the “periosteal MAR, cortical bone” value [4, 9]?
Answer: The value was 2.05±0.21 μm/day.

Question: And the “fold increase in endosteal BFR by PTH treatment” value ([4]; PTH(+) vs PTH(−) group, p<0.05)?
Answer: Its value is “about 1.8 fold”.

Question: What about the “fold increase in endosteal MAR by PTH treatment” value ([4]; PTH(+) vs PTH(−) group, p<0.05) of the same substance?
Answer: Its value is roughly 1.5 fold.

Question: What about the “fold increase in periosteal BFR by PTH treatment” value [4, 10] of the same substance?
Answer: Its value is roughly 0.6 fold.

Question: What about the “fold increase in periosteal MAR by PTH treatment” value [4, 10] of the same substance?
Answer: The value was roughly 0.7 fold.

Question: And the “number of osteoclasts per unit trabecular perimeter of cancellous bone trabeculae” value [5]?
Answer: The value was 9.2±1.8 cells/mm.

— patent US20080076711A1, “Therapeutic agents for osteopenia” (Chugai Seiyaku Kabushiki Kaisha, priority 2001, published 2008)
